According to patent US8889699B2, “5-fluorouracil derivative” (Delta-Fly Pharma, Inc., priority 2009, dated 2014):
Read-outs that look alike come from different tables or passages of the source.

Target: T1, DPD (Rattus norvegicus, UniProt O89000)
T1 construct: the obtained supernatant was used as a DPD enzyme solution or an OPRT enzyme solution; from tissue; host or cells: liver of 8-week old SD rat; 105,000 g supernatant of homogenate
T1 sequence (O89000 1-1025): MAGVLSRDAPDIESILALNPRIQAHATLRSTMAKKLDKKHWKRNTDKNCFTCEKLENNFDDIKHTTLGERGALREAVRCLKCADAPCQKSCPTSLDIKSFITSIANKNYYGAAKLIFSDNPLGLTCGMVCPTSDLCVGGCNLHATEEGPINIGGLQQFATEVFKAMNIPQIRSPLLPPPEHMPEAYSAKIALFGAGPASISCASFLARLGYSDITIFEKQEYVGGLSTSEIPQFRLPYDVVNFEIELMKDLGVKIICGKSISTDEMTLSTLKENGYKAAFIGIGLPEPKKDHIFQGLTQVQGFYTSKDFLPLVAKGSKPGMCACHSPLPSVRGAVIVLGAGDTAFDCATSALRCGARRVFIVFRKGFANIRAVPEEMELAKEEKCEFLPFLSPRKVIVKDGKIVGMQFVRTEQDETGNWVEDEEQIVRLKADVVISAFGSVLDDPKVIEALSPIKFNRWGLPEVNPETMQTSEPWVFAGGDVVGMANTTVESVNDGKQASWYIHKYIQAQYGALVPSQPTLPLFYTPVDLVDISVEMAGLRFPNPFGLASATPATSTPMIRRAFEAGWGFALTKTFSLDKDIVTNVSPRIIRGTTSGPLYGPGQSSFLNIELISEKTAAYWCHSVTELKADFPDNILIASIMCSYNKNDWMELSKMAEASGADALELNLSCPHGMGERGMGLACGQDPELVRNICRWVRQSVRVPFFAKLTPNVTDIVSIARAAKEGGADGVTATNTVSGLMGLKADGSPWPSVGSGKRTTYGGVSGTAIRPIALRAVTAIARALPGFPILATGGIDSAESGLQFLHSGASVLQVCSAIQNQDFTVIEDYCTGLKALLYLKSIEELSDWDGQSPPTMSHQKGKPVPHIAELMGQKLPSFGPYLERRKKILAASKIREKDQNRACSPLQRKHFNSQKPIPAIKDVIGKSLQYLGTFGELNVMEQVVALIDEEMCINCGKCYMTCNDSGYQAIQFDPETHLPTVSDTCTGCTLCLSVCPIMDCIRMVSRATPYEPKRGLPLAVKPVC
Assay: DPD inhibitory action in vitro (enzyme reaction, tritium-labeled 5-FU as substrate)
Assay type: biochemical
Protocol: The resulting product was diluted to concentrations of 1 mM, 100 μM, 10 μM, and 1 μM with a 10 mM potassium phosphate buffer solution (pH 6.0), thereby obtaining Test Liquids 1. The obtained Test Liquids 1 were separately added to the enzyme reaction solution described below to give final concentrations of 200 μM, 20 μM, 2 μM, and 0.2 μM. • (b) Test liquid preparation (2): As a DPD inhibitor, 5-chloro-2,4-dihydroxypyridine (CDHP; gimeracil) was dissolved to a concentration of 10 mM in a 10 mM potassium phosphate buffer solution (pH 6.0). The resulting product was diluted to concentrations of 1 mM, 100 μM, 10 μM, and 1 μM, thereby obtaining Test Liquids 2. The obtained Test Liquids 2 were separately added to the enzyme reaction solution to give final concentrations of 200 μM, 20 μM, 2 μM, and 0.2 μM. • (c) Test liquid preparation (3): As an OPRT inhibitor, citrazinic acid (Citra. A.) was dissolved to a concentration of 10 mM in 20 mM trishydroxyaminomethane-hydrochloric buffer solution (pH 8.0). Thereafter, the resulting product was diluted to concentrations of 1 mM, 100 μM, and 10 μM with a 10 mM potassium phosphate buffer solution, thereby obtaining Test Liquids (3). The obtained Test Liquids 3 were separately added to the enzyme reaction solution to give final concentrations of 200 μM, 20 μM, and 2 μM. • (d) Preparation of enzyme solution: The liver of an 8-week old SD rat was used as a DPD enzyme source, while human tumor cells that had been transplanted into a nude mouse and proliferated therein were used as an OPRT enzyme source. Specifically, immediately after a rat liver or successively-transplanted human tumor cells were extracted, a 50-mM tris-hydrochloric acid buffer solution (pH 8.0) containing 0.25 M saccharose, 5 mM magnesium chloride, and 1 mM dithreitol was added thereto to a concentration of 25% (w/v) and homogenized. Thereafter, ultracentrifugation was performed at 105,000 g for 60 minutes, and the obtained supernatant was used as a DPD enzyme solution or an OPRT enzyme solution. • (e) Enzyme reaction: A DPD enzyme reaction was carried out in accordance with the method of Tatsumi et al. (Gann, 78: 748-755 (1987)) using 5-FU labeled with tritium as a substrate. An OPRT enzyme reaction was carried out in accordance with the method of Shirasaka et al. (Cancer Res., 53: 4004-4009 (1993)) using 5-FU labeled with tritium as a substrate. Then, the activity of a control group (with no test compound) and test compound groups was measured. The percent inhibition of the test compound relative to DPD or OPRT was calculated using the following formula: [1-(the enzyme activity with the test compound/the enzyme activity of the control group)]×100(%).
The resulting product was diluted to concentrations of 1 mM, 100 μM, 10 μM, and 1 μM with a 10 mM potassium phosphate buffer solution (pH 6.0), thereby obtaining Test Liquids 1. The obtained Test Liquids 1 were separately added to the enzyme reaction solution described below to give final concentrations of 200 μM, 20 μM, 2 μM, and 0.2 μM. • (b) Preparation of enzyme solution: The liver of an 8-week old SD rat was used as a DPD enzyme source, while human tumor cells that had been transplanted into a nude mouse and proliferated therein were used as an OPRT enzyme source. Specifically, immediately after a rat liver or successively-transplanted human tumor cells were extracted, a 50-mM tris-hydrochloric acid buffer solution (pH 8.0) containing 0.25 M saccharose, 5 mM magnesium chloride, and 1 mM dithreitol was added thereto to a concentration of 25% (w/v) and homogenized. Thereafter, ultracentrifugation was performed at 105,000 g for 60 minutes, and the obtained supernatant was used as a DPD enzyme solution or an OPRT enzyme solution. • (c) Enzyme reaction: A DPD enzyme reaction was carried out in accordance with the method of Tatsumi et al. (Gann, 78: 748-755 (1987)) using 5-FU labeled with tritium as a substrate. […]

## Oc1cc(O)c(Cl)cn1 [CDHP, 5-chloro-2,4-dihydroxypyridine, reference compound]
0.2 μM, Table 2, read-out: DPD Inhibition (%)
  inhibition at 0.2 µM: 44.8%
2 μM, Table 2, read-out: DPD Inhibition (%)
  inhibition at 2 µM: 85.1%
Conc. 0.2 μM, Table 1
  DPD Inhibitory Activity: Activity: 0.597 nmol/mL/min
Conc. 0.2 μM, Table 1, read-out: DPD Inhibitory Activity: Inhibition
  inhibition at 0.2 µM: 40.8%
Conc. 2 μM, Table 1
  DPD Inhibitory Activity: Activity: 0.195 nmol/mL/min
Conc. 2 μM, Table 1, read-out: DPD Inhibitory Activity: Inhibition
  inhibition at 2 µM: 80.7%
Conc. 20 μM, Table 1
  DPD Inhibitory Activity: Activity: 0.074 nmol/mL/min
  inhibition at 20 µM: 92.7%
Conc. 200 μM, Table 1
  DPD Inhibitory Activity: Activity: 0.106 nmol/mL/min
  inhibition at 200 µM: 89.5%
